Results reported in patent publication US8952024B2, “Herbicidal pyrimidone derivatives” (E I du Pont de Nemours and Company, priority 2009, dated 2015).

What was measured:
Assay in all cases: Test B pre-/postemergence plant response
Assay type in all cases: in vivo
[1] = test system: Italian ryegrass (Lolium multiflorum)
How it was run: (§1)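 Visually scored on a 0 to 100 scale after 13 to 15 days in greenhouse versus controls. Treatments were preemergence on seeded loam/sand soil and postemergence on 1- to 4-leaf plants.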

[2] = test system: Surinam grass (Brachiaria decumbens)
How it was run: as §1

[3] = test system: blackgrass (Alopecurus myosuroides)
How it was run: as §1

[4] = test system: corn (Zea mays)
How it was run: as §1

[5] = test system: downy bromegrass (Bromus tectorum)
How it was run: as §1

[6] = test system: giant foxtail (Setaria faberii)
How it was run: as §1

[7] = test system: johnsongrass (Sorghum halepense)
How it was run: as §1

[8] = test system: kochia (Kochia scoparia)
How it was run: as §1

[9] = test system: pigweed (Amaranthus retroflexus)
How it was run: as §1

[10] = test system: ragweed (common ragweed, Ambrosia elatior)
How it was run: as §1

[11] = test system: soybean (Glycine max)
How it was run: as §1

[12] = test system: velvetleaf (Abutilon theophrasti)
How it was run: as §1

[13] = test system: woolly cupgrass (Eriochloa villosa)
How it was run: as §1

[14] = 31 g ai/ha, postemergence, scale 0 to 100, 0 is no effect, 100 is complete control
[15] = 62 g ai/ha, postemergence, 0 is no effect, 100 is complete control, 13 to 15 days
[16] = Postemergence, 250 g ai/ha, scale 0 to 100 (0 no effect, 100 complete control)
[17] = Postemergence, 125 g ai/ha, visual rating after 13 to 15 days, scale 0 (no effect) to 100 (complete control)
[18] = Postemergence, 31 g ai/ha, 0 to 100 scale (0 no effect, 100 complete control)
[19] = Postemergence, 62 g ai/ha, scale 0 to 100 (0 no effect, 100 complete control)
[20] = Postemergence, 125 g ai/ha, scale 0 (no effect) to 100 (complete control), 13 to 15 days
[21] = Postemergence, 250 g ai/ha, scale 0 to 100 (0 no effect, 100 complete control), 13 to 15 days
[22] = Preemergence, 31 g ai/ha, scale 0 to 100 (0 no effect, 100 complete control)
[23] = Preemergence, 62 g ai/ha, scale 0 to 100 (0 no effect, 100 complete control)
[24] = Preemergence, 125 g ai/ha, scale 0 to 100, 0 no effect, 100 complete control
[25] = Preemergence, 250 g ai/ha, 0 to 100 scale

## CCCCn1c(-c2ccccc2)ncc(C(=O)C2=C(O)CCCC2=O)c1=O [Compound 86]
[1]; [14]
  Plant response rating, Ryegrass, Italian: 25
[1]; [15]
  Ryegrass, Italian plant response rating (0 to 100 scale): 30
[1]; [16]
  Plant response rating, Ryegrass, Italian: 60
[2]; [14]
  Plant response rating, Surinam Grass: 80
[2]; [15]
  Surinam Grass plant response rating (0 to 100 scale): 95
[2]; [16]
  Plant response rating, Surinam Grass: 100
[3]; [14]
  Plant response rating, Blackgrass: 15
[3]; [15]
  Blackgrass plant response rating (0 to 100 scale): 30
[3]; [17]
  Plant response rating, Blackgrass: 45
[3]; [16]
  Plant response rating, Blackgrass: 55
[4]; [14]
  Plant response rating, Corn: 10
[4]; [15]
  Corn plant response rating (0 to 100 scale): 60
[4]; [17]
  Plant response rating, Corn: 80
[4]; [16]
  Plant response rating, Corn: 85
[5]; [14]
  Plant response rating, Bromegrass, Downy: 10
[5]; [15]
  Bromegrass, Downy plant response rating (0 to 100 scale): 10
[5]; [17]
  Plant response rating, Bromegrass, Downy: 35
[5]; [16]
  Plant response rating, Bromegrass, Downy: 50
[6]; [14]
  Plant response rating, Foxtail, Giant: 90
[6]; [15]
  Foxtail, Giant plant response rating (0 to 100 scale): 95
[6]; [16]
  Plant response rating, Foxtail, Giant: 98
[7]; [14]
  Plant response rating, Johnsongrass: 95
[7]; [15]
  Johnsongrass plant response rating (0 to 100 scale): 98
[7]; [16]
  Plant response rating, Johnsongrass: 100
[8]; [14]
  Plant response rating, Kochia: 75
[8]; [15]
  Kochia plant response rating (0 to 100 scale): 85
[8]; [16]
  Plant response rating, Kochia: 98
[9]; [14]
  Plant response rating, Pigweed: 98
[9]; [15]
  Pigweed plant response rating (0 to 100 scale): 100
[9]; [16]
  Plant response rating, Pigweed: 100
[10]; [14]
  Plant response rating, Ragweed: 80
[10]; [15]
  Ragweed plant response rating (0 to 100 scale): 90
[10]; [16]
  Plant response rating, Ragweed: 98
[11]; [14]
  Plant response rating, Soybean: 80
[11]; [15]
  Soybean plant response rating (0 to 100 scale): 95
[11]; [16]
  Plant response rating, Soybean: 98
[12]; [14]
  Plant response rating, Velvetleaf: 98
[12]; [15]
  Velvetleaf plant response rating (0 to 100 scale): 100
[12]; [16]
  Plant response rating, Velvetleaf: 100
[13]; [14]
  Plant response rating, Cupgrass, Woolly: 75
[13]; [15]
  Cupgrass, Woolly plant response rating (0 to 100 scale): 85
[13]; [17]
  Plant response rating, Cupgrass, Woolly: 95
[13]; [16]
  Plant response rating, Cupgrass, Woolly: 95

## CCc1ccccc1-n1c(-c2ccccc2)ncc(C(=O)C2=C(O)CCCC2=O)c1=O [Compound 255]
[1]; [18]
  Plant response rating, Ryegrass, Italian: 10
[1]; [19]
  Plant response rating, Ryegrass, Italian: 30
[1]; [20]
  Plant response rating, Ryegrass, Italian: 30
[1]; [21]
  Plant response rating, Ryegrass, Italian: 80
[1]; [22]
  Plant response rating, Ryegrass, Italian: 0
[1]; [23]
  Plant response rating, Ryegrass, Italian: 0
[1]; [24]
  Plant response rating, Ryegrass, Italian: 10
[1]; [25]
  Ryegrass, Italian plant response rating: 30
[2]; [18]
  Plant response rating, Surinam Grass: 80
[2]; [19]
  Plant response rating, Surinam Grass: 80
[2]; [20]
  Plant response rating, Surinam Grass: 90
[2]; [21]
  Plant response rating, Surinam Grass: 90
[2]; [22]
  Plant response rating, Surinam Grass: 65
[2]; [23]
  Plant response rating, Surinam Grass: 85
[2]; [24]
  Plant response rating, Surinam Grass: 95
[2]; [25]
  Surinam Grass plant response rating: 100
[3]; [18]
  Plant response rating, Blackgrass: 5
[3]; [19]
  Plant response rating, Blackgrass: 5
[3]; [20]
  Plant response rating, Blackgrass: 10
[3]; [21]
  Plant response rating, Blackgrass: 60
[3]; [22]
  Plant response rating, Blackgrass: 0
[3]; [23]
  Plant response rating, Blackgrass: 20
[3]; [24]
  Plant response rating, Blackgrass: 40
[3]; [25]
  Blackgrass plant response rating: 60
[4]; [18]
  Plant response rating, Corn: 60
[4]; [19]
  Plant response rating, Corn: 75
[4]; [20]
  Plant response rating, Corn: 85
[4]; [21]
  Plant response rating, Corn: 85
[4]; [22]
  Plant response rating, Corn: 0
[4]; [23]
  Plant response rating, Corn: 0
[4]; [24]
  Plant response rating, Corn: 0
[4]; [25]
  Corn plant response rating: 0
[5]; [18]
  Plant response rating, Bromegrass, Downy: 50
[5]; [19]
  Plant response rating, Bromegrass, Downy: 60
[5]; [20]
  Plant response rating, Bromegrass, Downy: 80
[5]; [21]
  Plant response rating, Bromegrass, Downy: 85
[5]; [22]
  Plant response rating, Bromegrass, Downy: 0
[5]; [23]
  Plant response rating, Bromegrass, Downy: 0
[5]; [24]
  Plant response rating, Bromegrass, Downy: 0
[5]; [25]
  Bromegrass, Downy plant response rating: 40
[6]; [18]
  Plant response rating, Foxtail, Giant: 95
[6]; [19]
  Plant response rating, Foxtail, Giant: 98
[6]; [20]
  Plant response rating, Foxtail, Giant: 98
[6]; [21]
  Plant response rating, Foxtail, Giant: 100
[6]; [22]
  Plant response rating, Foxtail, Giant: 15
[6]; [23]
  Plant response rating, Foxtail, Giant: 45
[6]; [24]
  Plant response rating, Foxtail, Giant: 55
[6]; [25]
  Foxtail, Giant plant response rating: 98
[7]; [18]
  Plant response rating, Johnsongrass: 80
[7]; [19]
  Plant response rating, Johnsongrass: 85
[7]; [20]
  Plant response rating, Johnsongrass: 90
[7]; [21]
  Plant response rating, Johnsongrass: 95
[7]; [22]
  Plant response rating, Johnsongrass: 0
[7]; [23]
  Plant response rating, Johnsongrass: 60
[7]; [24]
  Plant response rating, Johnsongrass: 75
[7]; [25]
  Johnsongrass plant response rating: 98
[8]; [18]
  Plant response rating, Kochia: 10
[8]; [19]
  Plant response rating, Kochia: 15
[8]; [20]
  Plant response rating, Kochia: 15
[8]; [21]
  Plant response rating, Kochia: 65
[9]; [18]
  Plant response rating, Pigweed: 80
[9]; [19]
  Plant response rating, Pigweed: 98
[9]; [20]
  Plant response rating, Pigweed: 98
[9]; [21]
  Plant response rating, Pigweed: 100
[9]; [22]
  Plant response rating, Pigweed: 100
[9]; [23]
  Plant response rating, Pigweed: 100
[9]; [24]
  Plant response rating, Pigweed: 100
[9]; [25]
  Pigweed plant response rating: 100
[10]; [18]
  Plant response rating, Ragweed: 50
[10]; [19]
  Plant response rating, Ragweed: 90
[10]; [20]
  Plant response rating, Ragweed: 95
[10]; [21]
  Plant response rating, Ragweed: 95
[10]; [22]
  Plant response rating, Ragweed: 65
[10]; [23]
  Plant response rating, Ragweed: 75
[10]; [24]
  Plant response rating, Ragweed: 85
[10]; [25]
  Ragweed plant response rating: 100
[11]; [18]
  Plant response rating, Soybean: 95
[11]; [19]
  Plant response rating, Soybean: 95
[11]; [20]
  Plant response rating, Soybean: 100
[11]; [21]
  Plant response rating, Soybean: 100
[11]; [22]
  Plant response rating, Soybean: 0
[11]; [23]
  Plant response rating, Soybean: 0
[11]; [24]
  Plant response rating, Soybean: 15
[11]; [25]
  Soybean plant response rating: 80
[12]; [18]
  Plant response rating, Velvetleaf: 95
[12]; [19]
  Plant response rating, Velvetleaf: 98
[12]; [20]
  Plant response rating, Velvetleaf: 98
[12]; [21]
  Plant response rating, Velvetleaf: 100
[12]; [22]
  Plant response rating, Velvetleaf: 80
[12]; [23]
  Plant response rating, Velvetleaf: 95
[12]; [24]
  Plant response rating, Velvetleaf: 98
[12]; [25]
  Velvetleaf plant response rating: 100
[13]; [18]
  Plant response rating, Cupgrass, Woolly: 85
[13]; [19]
  Plant response rating, Cupgrass, Woolly: 95
[13]; [20]
  Plant response rating, Cupgrass, Woolly: 95
[13]; [21]
  Plant response rating, Cupgrass, Woolly: 98
[13]; [22]
  Plant response rating, Cupgrass, Woolly: 0
[13]; [23]
  Plant response rating, Cupgrass, Woolly: 10
[13]; [24]
  Plant response rating, Cupgrass, Woolly: 75
[13]; [25]
  Cupgrass, Woolly plant response rating: 90
